Values quoted from earlier work, collected in patent US5965741A, “Ortho-substituted aromatic ether compounds and their use in pharmaceutical compositions for pain relief” (Zeneca Limited, priority 1994, dated 1999).

Tested on: EP1 receptors
Settings: guinea pig ileum or dog fundus

block of the effect of PGE2: blocks the effect of PGE2
SMILES: CC(=O)NNC(=O)N1Cc2ccccc2Oc2ccc(Cl)cc21 [SC-19220]
